# Source: PubChem BioAssay (NCI)
#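 Briefly, cells in 96-well plates were exposed to five compound concentrations for 48 h, and endpoints were estimated by linear interpolation. At the TGI there is no net growth.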
# What was measured:
# Assay in all cases: NCI anticancer screen, dose series, 48 h
# NCI-H460 lung = test system: NCI-H460 lung
# TK-10 renal = test system: TK-10 renal
# HCC-2998 colon = test system: HCC-2998 colon
# COLO 205 colon = test system: COLO 205 colon
# IGROV1 ovarian = test system: IGROV1 ovarian
# EKVX NSCLC = test system: EKVX NSCLC
# DU-145 prostate = test system: DU-145 prostate
# CAKI-1 renal = test system: CAKI-1 renal
# HCT-15 colon = test system: HCT-15 colon
# MDA-MB-435 = test system: MDA-MB-435
# T-47D breast = test system: T-47D breast
# NCI-H226 lung = test system: NCI-H226 lung
# SF-539 CNS = test system: SF-539 CNS
# M14 melanoma = test system: M14 melanoma
# MDA-MB-231 breast = test system: MDA-MB-231 breast
# SR leukemia = test system: SR leukemia
# NCI/ADR-RES ovarian = test system: NCI/ADR-RES ovarian
# CCRF-CEM leukemia = test system: CCRF-CEM leukemia
# UACC-62 melanoma = test system: UACC-62 melanoma
# NCI-H23 lung = test system: NCI-H23 lung
# RXF 393 renal = test system: RXF 393 renal
# HT29 colon = test system: HT29 colon
# SNB-19 CNS = test system: SNB-19 CNS
# SK-MEL-5 melanoma = test system: SK-MEL-5 melanoma
# A549 NSCLC = test system: A549 NSCLC
# SNB-75 CNS = test system: SNB-75 CNS
# 786-0 renal = test system: 786-0 renal
# OVCAR-4 ovarian = test system: OVCAR-4 ovarian
# KM12 colon = test system: KM12 colon
# K-562 leukemia = test system: K-562 leukemia
# SK-MEL-2 melanoma = test system: SK-MEL-2 melanoma
# SK-MEL-28 melanoma = test system: SK-MEL-28 melanoma
# MALME-3M melanoma = test system: MALME-3M melanoma
# MCF7 breast = test system: MCF7 breast
# HCT-116 colon = test system: HCT-116 colon
# UO-31 renal = test system: UO-31 renal
# HOP-62 NSCLC = test system: HOP-62 NSCLC
# SK-OV-3 ovarian = test system: SK-OV-3 ovarian
# BT-549 breast = test system: BT-549 breast
# A498 renal = test system: A498 renal
# LOX IMVI melanoma = test system: LOX IMVI melanoma
# OVCAR-8 ovarian = test system: OVCAR-8 ovarian
# SN12C renal = test system: SN12C renal
# SW-620 colon = test system: SW-620 colon
# SF-295 CNS = test system: SF-295 CNS
# RPMI-8226 leukemia = test system: RPMI-8226 leukemia
# MDA-N = test system: MDA-N
# SF-268 CNS = test system: SF-268 CNS
# UACC-257 melanoma = test system: UACC-257 melanoma
# NCI-H522 lung = test system: NCI-H522 lung
# PC-3 prostate = test system: PC-3 prostate
# U251 CNS = test system: U251 CNS
# MOLT-4 leukemia = test system: MOLT-4 leukemia
# ACHN renal = test system: ACHN renal
# OVCAR-5 ovarian = test system: OVCAR-5 ovarian
# HOP-92 NSCLC = test system: HOP-92 NSCLC
# OVCAR-3 ovarian = test system: OVCAR-3 ovarian
# HS 578T breast = test system: HS 578T breast
compound,measurement,setting,value
CC(=O)O[C@@H]1C2=C(C)C=C(O2)[C@H]2O[C@]2(C)C[C@H]2C=C(C(=O)O2)[C@H](OC(C)=O)CC1[C@@]1(C)CO1 (stereo not given in full),TGI,NCI-H460 lung,> 100 µM
same,TGI,TK-10 renal,> 100 µM
same,TGI,HCC-2998 colon,> 100 µM
same,TGI,COLO 205 colon,27.1 µM
same,TGI,IGROV1 ovarian,30.8 µM
same,TGI,EKVX NSCLC,85 µM
same,TGI,DU-145 prostate,> 100 µM
same,TGI,CAKI-1 renal,62.8 µM
same,TGI,HCT-15 colon,63.6 µM
same,TGI,MDA-MB-435,71.8 µM
same,TGI,T-47D breast,39.7 µM
same,TGI,NCI-H226 lung,> 100 µM
same,TGI,SF-539 CNS,83.4 µM
same,TGI,M14 melanoma,64.2 µM
same,TGI,MDA-MB-231 breast,78.8 µM
same,TGI,SR leukemia,47.5 µM
same,TGI,NCI/ADR-RES ovarian,> 100 µM
same,TGI,CCRF-CEM leukemia,29.6 µM
same,TGI,UACC-62 melanoma,56.3 µM
same,TGI,NCI-H23 lung,> 100 µM
same,TGI,RXF 393 renal,36.8 µM
same,TGI,HT29 colon,> 100 µM
same,TGI,SNB-19 CNS,> 100 µM
same,TGI,SK-MEL-5 melanoma,> 100 µM
same,TGI,A549 NSCLC,> 100 µM
same,TGI,SNB-75 CNS,> 100 µM
same,TGI,786-0 renal,77.1 µM
same,TGI,OVCAR-4 ovarian,> 100 µM
same,TGI,KM12 colon,> 100 µM
same,TGI,K-562 leukemia,36.5 µM
same,TGI,SK-MEL-2 melanoma,> 100 µM
same,TGI,SK-MEL-28 melanoma,36 µM
same,TGI,MALME-3M melanoma,58.4 µM
same,TGI,MCF7 breast,44.8 µM
same,TGI,HCT-116 colon,28.4 µM
same,TGI,UO-31 renal,51.4 µM
same,TGI,HOP-62 NSCLC,57.9 µM
same,TGI,SK-OV-3 ovarian,> 100 µM
same,TGI,BT-549 breast,48.5 µM
same,TGI,A498 renal,> 100 µM
same,TGI,LOX IMVI melanoma,37.6 µM
same,TGI,OVCAR-8 ovarian,> 100 µM
same,TGI,SN12C renal,69.8 µM
same,TGI,SW-620 colon,26.1 µM
same,TGI,SF-295 CNS,> 100 µM
same,TGI,RPMI-8226 leukemia,33.9 µM
same,TGI,MDA-N,> 100 µM
same,TGI,SF-268 CNS,> 100 µM
same,TGI,UACC-257 melanoma,> 100 µM
same,TGI,NCI-H522 lung,12.5 µM
same,TGI,PC-3 prostate,> 100 µM
same,TGI,U251 CNS,40.1 µM
same,TGI,MOLT-4 leukemia,25.2 µM
same,TGI,ACHN renal,61.6 µM
same,TGI,OVCAR-5 ovarian,76.8 µM
O=c1[nH]c(=O)n(C2CC(O)C(CO)O2)cc1C1=NC1 (stereo not given),TGI,NCI-H460 lung,> 100 µM
same,TGI,TK-10 renal,> 100 µM
same,TGI,HCC-2998 colon,> 100 µM
same,TGI,COLO 205 colon,> 100 µM
same,TGI,HOP-92 NSCLC,> 100 µM
same,TGI,IGROV1 ovarian,> 100 µM
same,TGI,EKVX NSCLC,> 100 µM
same,TGI,DU-145 prostate,> 100 µM
same,TGI,HCT-15 colon,> 100 µM
same,TGI,MDA-MB-435,> 100 µM
same,TGI,T-47D breast,> 100 µM
same,TGI,NCI-H226 lung,> 100 µM
same,TGI,OVCAR-3 ovarian,> 100 µM
same,TGI,SF-539 CNS,> 100 µM
same,TGI,M14 melanoma,> 100 µM
same,TGI,MDA-MB-231 breast,> 100 µM
same,TGI,NCI/ADR-RES ovarian,> 100 µM
same,TGI,HS 578T breast,> 100 µM
same,TGI,UACC-62 melanoma,> 100 µM
same,TGI,NCI-H23 lung,> 100 µM
same,TGI,RXF 393 renal,> 100 µM
same,TGI,HT29 colon,> 100 µM
same,TGI,SNB-19 CNS,> 100 µM
same,TGI,SK-MEL-5 melanoma,> 100 µM
same,TGI,A549 NSCLC,> 100 µM
same,TGI,SNB-75 CNS,> 100 µM
same,TGI,786-0 renal,> 100 µM
same,TGI,OVCAR-4 ovarian,> 100 µM
same,TGI,KM12 colon,> 100 µM
same,TGI,SK-MEL-2 melanoma,> 100 µM
same,TGI,SK-MEL-28 melanoma,> 100 µM
same,TGI,MCF7 breast,> 100 µM
same,TGI,HCT-116 colon,> 100 µM
same,TGI,UO-31 renal,> 100 µM
same,TGI,HOP-62 NSCLC,> 100 µM
same,TGI,SK-OV-3 ovarian,> 100 µM
same,TGI,BT-549 breast,> 100 µM
same,TGI,A498 renal,> 100 µM
same,TGI,OVCAR-8 ovarian,> 100 µM
same,TGI,SN12C renal,> 100 µM
same,TGI,SW-620 colon,> 100 µM
same,TGI,SF-295 CNS,> 100 µM
same,TGI,RPMI-8226 leukemia,> 100 µM
same,TGI,MDA-N,> 100 µM
same,TGI,SF-268 CNS,> 100 µM
same,TGI,UACC-257 melanoma,> 100 µM
same,TGI,U251 CNS,> 100 µM
same,TGI,MOLT-4 leukemia,> 100 µM
same,TGI,ACHN renal,> 100 µM
same,TGI,OVCAR-5 ovarian,> 100 µM
